Reference: patent publication US7993822B2, “Aging biomarker” (Vlaams Interuniversitair Instituut Voor Biotechnologie VZW, priority 2004, dated 2011)

Experiments:
rat [1] = experiment: Biochemical assay in serum (ALAT, ASAT, TBil) of CCl4 exposed rats, with or without Interferon-γ co-treatment; assay type: in vivo, rat (Wistar)
Source text: (§1) The repeated administration of CCl4 is widely employed as an animal model of human hepatic fibrosis/cirrhosis. In order to evaluate whether the sugar marker has high predictive values for the liver damage, we tested N-glycan profiling on the CCl4 treated, co-treated with INF-γ and control rat groups (Wistar). Take into account that N-glycosylation in animals is species-specific, we therefore profiled the N-linked glycan to get a fingerprinting in rat serum. […] N-glycan peaks of P1, P3, P5, P6, P7, P9 are consistent with that of human. However, four peaks (rP2, rP4, rP8 and rP10) are rat-specific N-linked sugars.
Moreover, the rat serum alanine aminotransferase activity (ALAT), aspartate aminotransferase activity (ASAT) and total bilirubin concentration (TBil) were analysed using routine photometric tests on a Hitachi 747 analyser (Boehringer Mannheim GmbH, Diagnostica) for subsequent assessment of hepatic injury and liver function, respectively.

rat [2] = experiment: Serum N-glycan profile of rats treated with CCl4 and co-treated with Interferon-γ; assay type: in vivo, rat (Wistar)
Method: The glycoproteins were denatured by addition of at least 2 volumes RCM buffer (8 M urea, 360 mM Tris, pH 8.6, 3.2 mM EDTA) to each sample in a final volume of at least 50 μl, and the samples were then placed at 50° C. for 1 h. The N-linked glycans present on the serum proteins in 5 μl of serum were released after binding the protein to an Immobilon P-lined 96-well plate. They were then derivatized with APTS (Molecular Probes, Eugene, Calif., USA) and analyzed on an ABI 377A DNA sequencer (Applied Biosystems).
as §1

[3] = rat, repeated administration of CCl4, Week 12, vs control group
[4] = CCl4 treated rat co-treated with INF-γ, Week 12, vs CCl4 group

| Molecule | serum alanine aminotransferase activity (ALAT) (rat [1]; [3]) | serum aspartate aminotransferase activity (ASAT) (rat [1]; [3]) | total bilirubin concentration (TBil) (rat [1]; [3]) | trends of six serum N-glycan peaks (rat [2]; CCl4 treated rat group compared to control group) | N-glycan profile between CCl4 group and control group (rat [2]; rat, Week 9, peaks P4 and P5 even in Week 6) | liver damage caused by CCl4 treatment (rat [1]; CCl4 treated rat co-treated with INF-γ, Week 12) | serum ALAT level (rat [1]; [4]) | serum ASAT level (rat [1]; [4]) | serum bilirubin level (rat [1]; [4]) | changes of serum N-glycan peaks (rat [2]; INF-γ co-treated group compared to CCl4 group) |
| --- | --- | --- | --- | --- | --- | --- | --- | --- | --- | --- |
| ClC(Cl)(Cl)Cl [CCl4] | significantly raised | significantly raised | significantly raised | either increased or decreased | different trends |  |  |  |  |  |
| Interferon-γ (protein, UniProt P01581 23-156, looked up, Interferon-γ co-treatment of CCl4 treated rats) Interferon gamma: QGTLIESLESLKNYFNSSSMDAMEGKSLLLDIWRNWQKDGNTKILESQIISFYLRLFEVLKDNQAISNNISVIESHLITNFFSNSKAKKDAFMSIAKFEVNNPQIQHKAVNELIRVIHQLSPESSLRKRKRSRC |  |  |  |  |  | partially protected | decreasing levels | decreasing levels | decreasing levels | less slop changes than CCl4-group |
